Consider 39 molecules from US20220288065A1, “MONOCYCLIC AGONISTS OF STIMULATOR OF INTERFERON GENES STING” (The Scripps Research Institute, priority 2019, published 2022).

This test relates to THP-1 Lucia ISG cells. The experiment in a line: ISG-LUC activation assay (ISRE-luciferase assay). Format: cell-based. The following applies: Homo sapiens, THP1-Lucia ISG, activity score based upon potency and efficacy data, 24 hours. From the text:
We have established a robust platform for identifying non-nucleotide small molecule STING agonists. This has been established using a primary assay involving a human THP-1 cell line carrying an IRF-inducible reporter with 5 copies of the IFN signaling response element. Counter screens, involving alternative reporter constructs, rodent cell-based assays, as well as cGAS and STING knock-out cell lines, are used to eliminate luciferase artifacts and ensure human-rodent cross species reactivity, as well as pathway selectivity. Biochemical assays, involving cGAS enzymatic activity and STING protein binding assays, are used to identify the specific target of identified hits.
Tissue culture. Wild-type (cat. no. thpl-isg) and STING KO (cat. no. thpd-kostg) THP-1-Lucia ISG cells were purchased from Invivogen and maintained in growth media consisting of RPMI 1640, 2 mM L-glutamine, 25 mM HEPES, 10% heat-inactivated fetal bovine serum (FBS), 1,000 units/ml penicillin, 1,000 μg/ml streptomycin, 0.25 μg/ml Amphotericin B, and 100 μg/ml zeocin unless otherwise stated.
ISRE-luciferase assay. THP-1 Lucia ISG cells were resuspended in low-serum growth media (2% FBS) at a density of 5×10^5 cells/ml and treated with test article or vehicle (DMSO). 50 μL of cells were seeded into each well of a 384-well white greiner plates and incubated for 24 hours. To evaluate expression of the luciferase reporter, 30 μl of Quanti-luc (Invivogen) detection reagent was added to each well and luminescence was read using an Envision plate reader (Perkin Elmer) set with an integration time of 0.1 seconds.

pEC50: −log10 of the molar value.

In the case of `N#Cc1cc(C(=O)O)c(NC(=O)c2ccc(-c3cn[nH]c3)nn2)cc1Cl` [Compound 70], the pEC50 is less than 4.70. The molecule `COC(=O)c1cc(C#N)c(C#N)cc1NC(=O)c1ccc(-c2c(C#N)cnn2C)nn1` [Compound 71] had a pEC50 of less than 4.70. `N#Cc1cc(C(=O)O)c(NC(=O)c2ccc(-c3c[nH]nn3)nn2)cc1Cl` [Compound 72] had a pEC50 of less than 4.70. Regarding `COC(=O)c1cc(Cl)c(Cl)cc1NC(=O)c1ccc(-c2nn(C)cc2C#N)nn1` [Compound 73], the pEC50 was less than 4.70. Take `COC(=O)c1cc(Cl)c(Cl)cc1NC(=O)c1cc(CCCN)c(-n2ccnc2)nn1` [Compound 74]: the pEC50 is less than 6.00.

Molecule `C#Cc1cc2nc(-c3ccc(-n4ccnc4)nn3)oc(=O)c2cc1F` [Compound 75] showed a pEC50 of more than 6.05.

Molecule `C#Cc1cc(NC(=O)c2ccc(-n3ccnc3)nn2)c(C(=O)OCC)nc1Cl` [Compound 76] showed a pEC50 of more than 6.05.

In the case of `C#Cc1cc(NC(=O)c2ccc(-n3ccnc3)nn2)c(C(=O)O)nc1Cl` [Compound 77], the pEC50 was more than 6.05.

With `C#Cc1cc(NC(=O)c2ccc(-c3ccncc3)nn2)c(C(=O)O)cc1Cl` [Compound 78], the pEC50 is more than 6.05.

As to `C#Cc1cc(NC(=O)c2ccc(-n3ccnc3)nn2)c(C(=O)O)cc1F` [Compound 79], the pEC50 was more than 6.05.

`C#Cc1cc2nc(-c3ccc(-n4ccnc4)nn3)oc(=O)c2cc1Cl` [Compound 80] gave a pEC50 of more than 6.05.

Consider `C#Cc1cc(NC(=O)c2ccc(-n3ccnc3)nn2)c(C(=O)O)cc1Cl` [Compound 81], for which the pEC50 is more than 6.05. Molecule `O=C(Nc1cc(Cl)c(Cl)nc1C(=O)O)c1ccc(-n2ccnc2)nn1` [Compound 82] showed a pEC50 of more than 6.05. For the molecule `C#Cc1cc(NC(=O)c2ccc(-c3cn[nH]c3)nn2)c(-c2c(O)c(=O)c2=O)cc1F` [Compound 83], the pEC50 is more than 6.05. As to `C#Cc1cc(NC(=O)c2ccc(-c3cn[nH]c3)nn2)c(-c2nn[nH]n2)cc1F` [Compound 84], the pEC50 was less than 6.00. In the case of `C#Cc1cc(NC(=O)c2ccc(-n3ccnc3)nn2)c(C(=O)OCC)cc1F` [Compound 85] it was more than 6.05; in that of `C#Cc1cc(NC(=O)c2ccc(-n3ccnc3)nn2)c(C(=O)OC(C)OC(=O)OCC)cc1F` (stereo not drawn) [Compound 86], more than 6.05; in that of `CC#Cc1cc(NC(=O)c2ccc(-n3ccnc3)nn2)c(C(=O)O)cc1F` [Compound 87], more than 6.05. Consider `C=Cc1cc(NC(=O)c2ccc(-n3ccnc3)nn2)c(C(=O)O)cc1F` [Compound 88], for which the pEC50 is more than 6.05. Then `C/C=C/c1cc(NC(=O)c2ccc(-n3ccnc3)nn2)c(C(=O)O)cc1F` [Compound 89], with more than 6.05; and `C#Cc1cc(NC(=O)c2ccc(-n3ccnc3)nn2)c(C(=O)O)nc1C` [Compound 90], with more than 5.52; and `Cc1nc(C(=O)O)c(NC(=O)c2ccc(-n3ccnc3)nn2)cc1Cl` [Compound 91], with less than 6.00. `C#Cc1cc(NC(=O)c2ccc(-n3ccnc3)nn2)c(C(=O)O)nc1F` [Compound 92] had a pEC50 of more than 6.05. In the case of `C#Cc1cc2nc(-c3ccc(-n4ccnc4)nn3)oc(=O)c2nc1Cl` [Compound 93] it was more than 5.52; in that of `C#Cc1cc(NC(=O)c2ccc(-n3ccnc3)nn2)c(C(=O)OC(OC(=O)C(C)C)C(C)C)cc1F` (stereo not drawn) [Compound 94], more than 6.05. In turn, `CC#Cc1cc(NC(=O)c2ccc(-n3ccnc3)nn2)c(C(=O)OCC)nc1Cl` [Compound 95] gave a pEC50 of more than 6.05. On to `C#Cc1cc(NC(=O)c2ccc(-n3ccnc3)nn2)c(C(=O)OC(C)C)cc1F` [Compound 96], for which the negative-log EC50 (pEC50) is less than 6.00. Then `C#Cc1cc(NC(=O)c2ccc(-n3ccnc3)nn2)c(C(=O)OC(C)C)nc1Cl` [Compound 97], with more than 6.05; and `C#Cc1cc(NC(=O)c2ccc(-n3ccnc3)nn2)c(C(=O)OCCN2CCOCC2)nc1Cl` [Compound 98], with more than 6.05; and `N#Cc1cc(C(=O)O)c(NC(=O)c2ccc(-n3ccnc3)nn2)cc1Cl` [Compound 99], with more than 5.52. For `C#Cc1cc(NC(=O)c2ccc(-n3ccnc3)nn2)c(C(=O)O)cc1C#N` [Compound 100], the pEC50 is more than 5.52. `C/C=C/c1cc(NC(=O)c2ccc(-n3ccnc3)nn2)c(C(=O)O)nc1Cl` [Compound 101] gave a pEC50 of more than 6.05.

`C#Cc1cc(NC(=O)c2ccc(-n3ccnc3)nn2)c(C(=O)OC(C)OC(=O)OCC)nc1Cl` (stereo not drawn) [Compound 102]: the pEC50 was more than 6.05. For `C#Cc1cc(NC(=O)c2ccc(-n3ccnc3)nn2)c(C(=O)OCCN2CCOCC2)cc1F` [Compound 103], the pEC50 was more than 6.05. As to `CC#Cc1cc(NC(=O)c2ccc(-n3ccnc3)nn2)c(C(=O)O)nc1Cl` [Compound 104], the pEC50 is more than 6.05. For the molecule `C#Cc1cc(NC(=O)c2ccc(-n3ccnc3)nn2)c(C(=O)NCCO)nc1Cl` [Compound 105], the pEC50 was less than 6.00. `C#Cc1cc(NC(=O)c2ccc(-n3ccnc3)nn2)c(C(=O)NCCO)cc1F` [Compound 106] gave a pEC50 of less than 4.70. As to `C#Cc1cc(NC(=O)c2ccc(-n3ccnc3)nn2)c(C(=O)OC)nc1C#N` [Compound 107], the pEC50 was more than 6.05. Then `C#Cc1cc(NC(=O)c2ncc(-c3cn[nH]c3)cn2)c(C(=O)O)cc1F` [Compound 108], with less than 4.70.

Usually pEC50 stands for the EC50 on a negative log10 scale, so that one unit is a factor of ten. High values mean a small EC50, low ones a large EC50.
